Reference: PubChem BioAssay (NCI)
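Dose response: 5 concentrations. Exposure: 48 h. Format: 96-well plates. Endpoint: linear interpolation; highest concentration if not reached. At the TGI there is no net growth.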

What was measured:
Test in all cases: DTP human tumour cell line panel, 48 h
[1] = test system: NCI-H23 lung
[2] = test system: HS 578T breast
[3] = test system: SK-MEL-5 melanoma
[4] = test system: MCF7 breast
[5] = test system: SK-OV-3 ovarian
[6] = test system: SR leukemia
[7] = test system: HL-60(TB) leukemia
[8] = test system: CCRF-CEM leukemia
[9] = test system: OVCAR-4 ovarian
[10] = test system: A498 renal
[11] = test system: BT-549 breast
[12] = test system: NCI/ADR-RES ovarian
[13] = test system: M14 melanoma

Structure (SMILES)	TGI [1] [µM]	TGI [2] [µM]	TGI [3] [µM]	TGI [4] [µM]	TGI [5] [µM]	TGI [6] [µM]	TGI [7] [µM]	TGI [8] [µM]	TGI [9] [µM]	TGI [10] [µM]	TGI [11] [µM]	TGI [12] [µM]	TGI [13] [µM]
CN(C)Cc1cc(N=Nc2c(Cl)cccc2Cl)ccc1O	> 100	> 100	52.1	> 100	> 100	> 100	> 100	> 100	> 100	> 100	> 100	> 100	
CC(C)(C)c1cc(C(C)(C)C)c(P=C(Cl)Cl)c(C(C)(C)C)c1 (centres undefined)	> 100	> 100	> 100	> 100	> 100	> 100	> 100	> 100	> 100	> 100	> 100	> 100	> 100
COc1ccccc1/[N+]([O-])=C/c1ccccc1OC(=S)S	> 100	> 100	> 100	> 100	> 100	> 100	74.5		> 100	> 100	> 100	> 100	> 100
CCOC(=O)NC(OCCN(C)C)(C(F)(F)F)C(F)(F)F	> 100	> 100	> 100	> 100	> 100	> 100	> 100	> 100		> 100	> 100	> 100	> 100
CC(=O)N1c2ccccc2C2=NN=C(N(C)C)SC21 (centres undefined)	19.3	52.4		14.9		21.2	5.07	5.31	29.8	11.7	24.2	10.4	7.97
COc1cc2c(cc1C)NC(=O)/C2=C\c1cccnc1	23.3	96.6	33.5	47.8	43.9		> 100	> 100	40.4	26.1	96.9	36.8	77
N#Cc1c(-c2cccc(Br)c2)cc(-c2ccc(Cl)cc2)nc1N	71.7	43.1	30.7	> 100	56.6	46.3	69	87.5	13.5		99.3	55.6	41.1
C=CCN1C(=O)/C(=C/c2ccccc2)N=C1SC/C=C/C	> 100	> 100	47.6	> 100	> 100	23.3		> 100	> 100	> 100	> 100	> 100	> 100
Nc1ccc2c(c1)N(C(=O)CCCC(=O)N1CC(CCl)c3ccc(N)cc31)CC2CCl (centres undefined)	4.16	1.94	0.689	12.9	48.6		0.907	> 20.1	> 11.1	3.47	6.53	42.7	4.7
COc1ccc(-c2cc(-c3ccccc3)c3c(n2)-c2ccccc2NC(=O)C3)cc1	> 100	30.5	> 100	> 100	> 100		> 100		> 100	> 100	> 100	> 100	> 100
COc1ccc(/C=C/C(=N/NC(=O)N/N=C(/C=C/c2ccc(OC)cc2)C(C)C)C(C)C)cc1	> 100	> 100	> 100	> 100	> 100	> 100	> 100	> 100	> 100	> 100	> 100	> 100	> 100
CCOC(=O)N(C)CCC1CC=CC(=O)C1c1cccc(OC)c1OC (centres undefined)	36.3	> 100	22	56.6	> 100	67.1	52.5	35.7	> 100	> 100	34.3	80.1	55
CC(C)C(=O)CC(Sc1ccc(N)cc1)c1ccccc1 (centres undefined)	58.2	67.6	68.2	47.1	58.4		49.2	70.7		89.1	65.6	99.6	> 100
Nc1c(O)c2c(c(O)c1Cl)C(=O)C=CC2=O	4.89	37.1	2.04	3.51	> 60.7		6.13	> 100	16.2	27.3	3.38	> 32.6	6.08
COC(=O)C1=C(O)C(C(=O)OC)[C@]2(O)[C@H](C(=O)OC)[C@H]1C[C@@H](c1ccc(O)cc1)[C@H]2C(=O)OC (some centres undefined)	> 100	87.3	> 100	> 100	61.6	> 100	95.1	> 100	> 100	> 100	91.5	> 100	> 100
COc1ccc2c(c1)nc1n2C(c2c(F)cccc2F)SC1 (centres undefined)	> 100	> 100	56.4	> 100	> 100	> 100	> 100	> 100	> 100	> 100	> 100	> 100	> 100
COc1ccc(-c2c(C#N)c(N)n(C3OCC(O)C(O)C3O)c(=S)c2C#N)cc1 (centres undefined)	> 100	> 100	> 100	> 100	> 100	> 100	> 100	> 100		> 100	> 100	> 100	> 100
COc1ccc(C[C@H]2NC[C@H](OC(C)=O)[C@H]2OC(C)=O)cc1	0.94	0.465	0.345	> 100	2.56	3.45	0.326	1.18	0.706	4.27	0.564	0.788	0.328
